Several values for one entry are separate records, joined by “and”; a condition that tells them apart may be missing. Equal values may be shown once. Read-outs that look alike come from different tables or passages of the source.

These results are taken from article PMC7242566, “The Three Lipocalins of Egg-White: Only Ex-FABP Inhibits Siderophore-Dependent Iron Sequestration by Salmonella Enteritidis” (Frontiers in Microbiology, 2020).

The target in assay [1] is T1, Ex-FABP (Gallus gallus, UniProt P21760).
T1 construct: made in house; host or cells: E. coli K-12 BW25113 ΔentB::kan (JW0587) (λDE3), pET21a, periplasmic secretion
T1 sequence (P21760 21-178): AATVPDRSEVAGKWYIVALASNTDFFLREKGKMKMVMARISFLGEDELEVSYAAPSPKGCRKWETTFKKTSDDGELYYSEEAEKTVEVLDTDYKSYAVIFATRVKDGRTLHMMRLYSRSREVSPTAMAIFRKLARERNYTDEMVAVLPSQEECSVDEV
The experiment in a line: biochemical. It is filed as binding, chicken. The procedure:
(§1) Experiments were carried out with a GE Healthcare Microcal VP-ITC microcalorimeter according to the manufacturer’s guidelines (Operating Instructions 28-9639-79 AA). The device consisted of a motorized injection syringe, in which the ligand was loaded, with two adiabatic cells set at 30 °C. The left cell was filled with the reference (TBS with 1.3% DMSO), whereas the right cell was filled with 5 μM lipocalin protein dissolved in the same buffer. […] Samples were degassed and pre-equilibrated at the desired temperature using a GE MicroCal ThermoVac degassing station before loading into the syringe, sample cell and reference cell.

The target of assay [2] is T2, LCN2 (Homo sapiens, UniProt P80188).
T2 construct: made in house; host or cells: E. coli K-12 BW25113 ΔentB::kan (JW0587) (λDE3), pET21a
T2 sequence (P80188 with tags, fused parts or gaps): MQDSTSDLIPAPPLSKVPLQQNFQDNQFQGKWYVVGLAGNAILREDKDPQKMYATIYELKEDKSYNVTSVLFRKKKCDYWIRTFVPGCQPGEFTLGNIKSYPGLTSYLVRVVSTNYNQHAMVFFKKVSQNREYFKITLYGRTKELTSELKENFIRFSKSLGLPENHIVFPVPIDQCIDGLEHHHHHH
Particulars: cited from earlier work; for Kd: TQF.

Assay [3] addresses T2, LCN2. More on the design: method as in Li et al., 2015. The note with it: ITC, earlier report; ref Li et al., 2015; cited from earlier work. (ITC needs no label: the signal is the heat of the interaction.)
Assay [4] addresses T2, LCN2. The experiment in a line: Isothermal titration calorimetry, siderophore binding to LCN2. Particulars: ITC; for n (binding stoichiometry) / ΔH (enthalpy) / ΔS (entropy) / Kd: TBS pH 7.4, 30°C; for Kd: 5 μM lipocalin. The procedure:
as §1

The target in assay [5] is T1, Ex-FABP. The note with it: TQF, ref Correnti et al., 2011, cited from earlier work; for Kd: pH 7.4.
Another assay concerns the target α-1-ovoglycoprotein. As to the kind of experiment: Isothermal titration calorimetry, siderophore binding to α-1-ovoglycoprotein. Further details: species or system chicken. The note with it: ITC, TBS pH 7.4, 30°C, 5 μM recombinant non-glycosylated lipocalin. On the procedure:
as §1
(§2) FIGURE 2 Interactions between lipocalins and SE siderophores. […] Data for LCN2, Fe-Ent are shown in the Supplementary Figure S2.

On the set-up of assay [6]: method as in Chart and Rowe, 1993. The note with it: ref Chart and Rowe, 1993; cited from earlier work.
For another assay, the target named is Cal-γ. As to the kind of experiment: Isothermal titration calorimetry, siderophore binding to Cal-γ. The note with it: ITC, TBS pH 7.4, 30°C, 5 μM lipocalin. Further details: species or system chicken. The procedure:
as §1, §2

One may read the Kd as the concentration at which binding is half-saturated. `O=C(N[C@H]1COC(=O)[C@@H](NC(=O)c2cccc([O-])c2[O-])COC(=O)[C@@H](NC(=O)c2cccc([O-])c2[O-])COC1=O)c1cccc([O-])c1[O-].[Fe+3]` [Fe^3+-Ent]: the “fold higher affinity for Fe^3+-Ent than apoEnt” value is given as 16 fold on Ex-FABP [1] (ITC); 8.7 fold on LCN2 [2] (ref Abergel et al., 2006); 4.9 fold on LCN2 [4]; 2.3 fold on Ex-FABP [5]. Further, the “n (binding stoichiometry)” value was found to be 0.672 at Ex-FABP [1] (ITC, TBS pH 7.4, 30°C) and 0.863 at LCN2 [4]. Further, the “ΔH (enthalpy)” value on Ex-FABP [1] (ITC, TBS pH 7.4, 30°C) was -19.4 kcal/mol; at LCN2 [4], -26.2 kcal/mol. Moreover, the “ΔS (entropy)” value at Ex-FABP [1] (ITC, TBS pH 7.4, 30°C) was −26.1 cal/mol, K; at LCN2 [4], −50.2 cal/mol, K. Moreover, the Kd on Ex-FABP [1] (ITC, TBS pH 7.4, 30°C, 5 μM lipocalin, read-out: Kd) was 5.3 ± 3.8 nM; at LCN2 [2] (ref Fischbach et al., 2006), 0.43 nM; on LCN2 [2] (ref Goetz et al., 2002) it was 0.41 nM; at LCN2 [3], 240 nM; on LCN2 [4] (read-out: Kd), 11.8 ± 8.8 nM; on Ex-FABP [5] (read-out: Kd), 0.22 ± 0.06 nM.

For the compound `O=C(N[C@H]1COC(=O)[C@@H](NC(=O)c2cccc(O)c2O)COC(=O)[C@@H](NC(=O)c2cccc(O)c2O)COC1=O)c1cccc(O)c1O` [apo-Ent, enterobactin], the Kd entry on α-1-ovoglycoprotein is “Under threshold”; at α-1-ovoglycoprotein (listed as apoEnt), “neither Cal-γ nor α-1-ovoglycoprotein bind”; at α-1-ovoglycoprotein (listed as enterobactin), “No interactions could be measured”; at Ex-FABP [1] it was 86.2 ± 14.6 nM; on LCN2 [2] (ref Abergel et al., 2006), 3.57 nM; on Cal-γ, “Under threshold”. Further, the Kd result at Cal-γ (listed as apoEnt) is “neither Cal-γ nor α-1-ovoglycoprotein bind”; at Cal-γ (listed as enterobactin) it was “No interactions could be measured”; at LCN2 [4] (Kd), 58 nM and 58.4 nM; at Ex-FABP [5] (read-out: Kd), 0.5 ± 0.15 nM. Moreover, in assay [6], the “binding/affinity constant for Fe^3+ (ferric ion)” value is given as 10^52 M^−1. In addition, the “n (binding stoichiometry)” value at Ex-FABP [1] (ITC, TBS pH 7.4, 30°C) came out at 0.617; at LCN2 [4], 0.872. Further, the “ΔH (enthalpy)” value is -28.3 kcal/mol at Ex-FABP [1] (ITC, TBS pH 7.4, 30°C) and -27.8 kcal/mol on LCN2 [4]. Besides, the “ΔS (entropy)” value is −60.9 cal/mol, K on Ex-FABP [1] (ITC, TBS pH 7.4, 30°C) and −58.9 cal/mol, K on LCN2 [4].

Regarding salmochelin [apo-Sal (or DGE)], the Kd result on α-1-ovoglycoprotein is reported as “Under threshold”; on α-1-ovoglycoprotein (listed as apoDGE), “neither Cal-γ nor α-1-ovoglycoprotein bind”; on α-1-ovoglycoprotein (listed as salmochelin), “No interactions could be measured”; on Ex-FABP [1] (ITC, TBS pH 7.4, 30°C, 5 μM lipocalin) it was “No interactions could be measured”; at Ex-FABP [1] (ITC, TBS pH 7.4, 30°C, 5 μM lipocalin, listed as apoDGE), “failed to interact”; on Cal-γ it was “Under threshold”. The Kd entry was “neither Cal-γ nor α-1-ovoglycoprotein bind” on Cal-γ (listed as apoDGE), “No interactions could be measured” at Cal-γ (listed as salmochelin), “No binding was observed” on LCN2 [4] and “Under threshold” on Ex-FABP [5].
